One data set concerns HepG2. In words: MTT anti-proliferative assay, HepG2. Format: cell-based. The conditions noted are these: Homo sapiens, 48 h treatment. The protocol: (§1) The in vitro anti-proliferation of the chemical compounds was measured by the MTT reagent. Briefly, 5 × 10^3 cells in 100 μL of medium per well were plated in 96-well plates. After being incubated for 24 h at 37 °C, the cells were treated with different concentration of tested compound or DMSO (as negative control) for 48 h. Then the medium with compound or DMSO was replaced with 200 μL of fresh medium containing 10% MTT (5 mg/mL in PBS) in each well and incubated at 37 °C for 4 h. Last, the MTT-containing medium was discarded and 150 μL of DMSO per well was added to dissolve the formazan crystals newly formed. Absorbance of each well was determined by a microplate reader (Synergy H4, Bio-Tek) at a 570 nm wavelength. The inhibition rates of proliferation were calculated with the following equation:Inhibition ratio (%) = (ODDMSO−ODcompd)/(ODDMSO−ODblank) × 100(1)
(§2) The concentration of the compounds that inhibited cell growth by 50% (IC50) was calculated using GraphPad Prism, version 6.0.
Background: Formazan colour is commonly taken as a measure of viable cells.

For a further data set, the system named is Huh7. In words: MTT anti-proliferative assay, Huh7. Format: cell-based. As to conditions: Homo sapiens, Huh-7, 48 h treatment. The protocol: as §1, §2
Another data set concerns MCF-7. In words: MTT anti-proliferative assay, MCF-7. The conditions noted are these: Homo sapiens, MCF7, 48 h treatment. The class given is cell-based. The protocol:
as §1, §2

The subject of data set [1] is MDA-MB-231 (triple negative breast cancer). In words: MTT anti-proliferative assay, MDA-MB-231. Format: cell-based. The conditions noted are these: Homo sapiens, 48 h treatment. The protocol:
as §1, §2

Data set [2] has as its system Hela (human cervical carcinoma). In words: MTT anti-proliferative assay, Hela. The class given is cell-based. The conditions noted are these: 48 h treatment. The protocol:
as §1, §2

The next data set has as its system A549. In words: MTT anti-proliferative assay, A549. Format: cell-based. The conditions noted are these: Homo sapiens, 48 h treatment. The protocol: as §1, §2
For data set [3], the system named is mouse melanoma cell line B16F10. In words: MTT anti-proliferative assay, B16F10. The class given is cell-based. As to conditions: B16-F10, 48 h treatment. The protocol: as §1, §2
In data set [4] the test system is HUVEC (Human Umbilical Vein Endothelial Cells). Kind of data set: MTT anti-proliferative assay, nontumorigenesis cells HUVEC. Format: cell-based. As to conditions: 48 h treatment. The protocol: as §1, §2
In another data set the test system is 293T. In words: MTT anti-proliferative assay, nontumorigenesis cells 293T. The class given is cell-based. The conditions noted are these: Homo sapiens, HEK-293T, 48 h treatment. The protocol:
as §1, §2

The IC50 is the concentration that inhibits the measured activity by half. What is called melting point is the temperature, or range, at which the solid turns liquid.

As to `O=C(Nc1ccc(Oc2ccnc(C(=O)NCCO)c2)cc1)Nc1ccc(Cl)c(C(F)(F)F)c1` [Compound 10a, N-(2-hydroxyethyl)-4-(4-(3-(4-chloro-3-(trifluoromethyl)phenyl)ureido)phenoxy)picolinamide], the melting point fell in the range of 193 to 195 °C. For the same molecule, the IC50 with HepG2 is 70.7 µM. Moreover, the 50% inhibitory concentration (IC50) in the data set with Huh7 came out at 319 µM. Besides, in the data set with MCF-7, the IC50 came out at 471 µM. Also, the IC50 in [1] is above 500 µM. Besides, in [2], the IC50 is above 500 µM. In the data set with A549, the IC50 is 287 µM. Further, in data set [3], the IC50 is above 500 µM. Besides, the IC50 in data set [4] was 583 µM. Further, the IC50 in the data set with 293T was determined as 643 µM.

As to `O=C(Nc1ccc(Oc2ccnc(C(=O)NCCS)c2)cc1)Nc1ccc(Cl)c(C(F)(F)F)c1` [Compound 10b, N-(2-mercaptoethyl)-4-(4-(3-(4-chloro-3-(trifluoromethyl)phenyl)ureido)phenoxy) picolinamide], the IC50 in the data set on HepG2 is 282 µM; in the data set on Huh7 it was 58.8 µM; in the data set on MCF-7 it was 159 µM; in data set [1] it was 295 µM; in data set [2], 63.7 µM; in the data set with A549 it was 447 µM. Besides, the IC50 in data set [3] is above 500 µM; in data set [4], 197 µM; in the data set on 293T it was 135 µM.

Consider `O=C(Nc1ccc(Oc2ccnc(C(=O)NCCCO)c2)cc1)Nc1ccc(Cl)c(C(F)(F)F)c1` [Compound 10c, N-(3-hydroxypropyl)-4-(4-(3-(4-chloro-3-(trifluoromethyl)phenyl)ureido)phenoxy)picolinamide], for which the melting point is 103 to 105 °C. For the same molecule, the IC50 in the data set on HepG2 is 90.1 µM. Further, in the data set with Huh7, the IC50 came out at 88.4 µM. For the same molecule, the IC50 in the data set with MCF-7 came to 268 µM. Moreover, the IC50 in [1] was found to be 330 µM. For the same molecule, the IC50 in data set [2] was determined as 233 µM. Further, the IC50 in the data set with A549 is above 500 µM. The IC50 in data set [3] came to 449 µM. Besides, the IC50 in data set [4] is 329 µM. In addition, the IC50 with 293T amounted to 454 µM.

In turn, `CC(CO)NNC(=O)c1cc(Oc2ccc(NC(=O)Nc3ccc(Cl)c(C(F)(F)F)c3)cc2)ccn1` (stereo not shown) [Compound 15a, 1-(4-Chloro-3-(trifluoromethyl)phenyl)-3-(4-((2-(2-(1-hydroxypropan-2-yl)hydrazine-1-carbonyl)pyridin-4-yl)oxy)phenyl)urea] returned a melting point of 139 to 141 °C. The IC50 in the data set on HepG2 is 80.1 µM. Moreover, the IC50 in the data set on Huh7 was above 500 µM. Also, the 50% inhibitory concentration (IC50) in the data set on MCF-7 is above 500 µM. In addition, the IC50 in data set [1] is above 500 µM. In data set [2], the IC50 is above 500 µM. Moreover, the concentration for half-maximal inhibition (IC50) in the data set with A549 amounted to 46.2 µM. For the same molecule, the IC50 in [3] was above 500 µM. In [4], the IC50 worked out at 320 µM. Moreover, in the data set with 293T, the IC50 is 1580 µM.

`CC(CCO)NNC(=O)c1cc(Oc2ccc(NC(=O)Nc3ccc(Cl)c(C(F)(F)F)c3)cc2)ccn1` (stereo not shown) [Compound 15b, 1-(4-Chloro-3-(trifluoromethyl)phenyl)-3-(4-((2-(2-(4-hydroxybutan-2-yl)hydrazine-1-carbonyl)pyridin-4-yl)oxy)phenyl)urea] displayed a melting point of 89 to 92 °C. For the same molecule, the IC50 in the data set with HepG2 was above 500 µM. The 50% inhibitory concentration (IC50) in the data set with Huh7 is above 500 µM. In addition, the IC50 in the data set on MCF-7 was above 500 µM. Moreover, in [1], the IC50 was above 500 µM. For the same molecule, the IC50 in data set [2] was above 500 µM. The IC50 in the data set with A549 is above 500 µM. Besides, the IC50 in data set [3] is above 500 µM. The IC50 in [4] worked out at 1250 µM. For the same molecule, in the data set with 293T, the IC50 was 559 µM.

On to `CNC(=O)c1cc(Oc2ccc(NC(=O)Nc3ccc(Cl)c(C(F)(F)F)c3)cc2)ccn1` [Sorafenib], for which the half-maximal inhibitory concentration (IC50) worked out at 24.1 µM in the data set on HepG2; 19.5 µM in the data set with Huh7; 37.2 µM with MCF-7; 12.3 µM in data set [1]; 49.5 µM in [2]; 17.4 µM in the data set on A549. Moreover, the results for the IC50 (in data set [3]; in data set [4]; in the data set on 293T) were 17.3 µM, 35.5 µM and 16.1 µM, respectively.

The values above are taken from PMC7037283, “Introduction of Mercaptoethyl at Sorafenib Pyridine-2-Amide Motif as a Potentially Effective Chain to Further get Sorafenib-PEG-DGL” (Molecules, 2020).
